# Key:
# Assay type in all cases: cell-based
# SKOV3 cells = assay: Oxygen consumption rate (OCR) measurement
# Procedure: FIG. 4 Dynamic flux analysis with parallel tracers to quantify oxidative MTHFD2 flux. a, Oxidative MTHFD2 flux and percentage decrease in OCRfollowing MTHFD2 inhibition in SKOV3 cells treated with rotenone (0, 31, 62, 125, 250, 500 or 1,000 nM) and MTHFD2 inhibitor (0 or 60 μM). Oxidative MTHFD2 flux is proportional to [2H1]-serine/[2H1]-NADH enrichment in cells cultured with 4-[2H]-glucose for 8 h. Percentage decrease in OCR is estimated in SKOV3 cells treated with 60 μM MTHFD2i compared with 0 μM MTHFD2i. Oxidative flux data are combined from two independent experiments (n=4), with mean±s.d. estimated using error propagation. OCR data are representative of two independent experiments and presented as mean±s.d. estimated using error propagation (n=5). b, Reductive MTHFD2 flux and basal OCR in SKOV3 cells treated with rotenone (0, 31, 62, 125, 250 or 1,000 nM) and MTHFD2 inhibitor (0 or 60 μM). Reductive MTHFD2 flux is proportional to [2H1]-NADH in cells cultured with 2,3,3-[2H]-serine for 8 h. OCR data are representative of two independent experiments and presented as mean±s.e.m. (n=5). c, Schematic of combination tracer experiment with 4-[2H]-glucose and [2H]-formate to track oxidative MTHFD2 flux. […] (n=6) and analysed using two-tailed Welch's t-test. e, Ratio of [2H2]-serine/[2H]-NADH enrichment in SKOV3 and OVCAR8 cells at 2 h after combined tracer introduction of 4-[2H]-glucose and [2H]-formate, representing the normalized contribution of [2H]-NADH to [2H2]-serine via oxidative MTHFD2 flux. Data combined from two independent experiments (n=6), with mean±s.d. estimated using error propagation and analysed by two-tailed Welch's t-test. f, [2H2]-serine enrichment in SKOV3 cells expressing shScramble or shUQCR11 at 2 h after combined tracer introduction of 4-[2H]-glucose and [2H]-formate. […] (n=5) and analysed using one-tailed non-parametric Mann-Whitney test.
# OCR measurement. […] Live OCR was measured for up to 16 h after attaching the lid.
# Mito stress test with the Seahorse analyser. Mitochondrial OCR was measured using a Seahorse XFe96 analyser (Agilent Technologies). […]
# [1] = test system: reductive MTHFD2 flux in SKOV3 cells; assay: Reductive MTHFD2 flux by 2,3,3-[2H]-serine tracing; settings: SKOV3 treated with MTHFD2 inhibitor 60 μM
# Procedure: (§1) FIG. 4 Dynamic flux analysis with parallel tracers to quantify oxidative MTHFD2 flux. a, Oxidative MTHFD2 flux and percentage decrease in OCRfollowing MTHFD2 inhibition in SKOV3 cells treated with rotenone (0, 31, 62, 125, 250, 500 or 1,000 nM) and MTHFD2 inhibitor (0 or 60 μM). Oxidative MTHFD2 flux is proportional to [2H1]-serine/[2H1]-NADH enrichment in cells cultured with 4-[2H]-glucose for 8 h. Percentage decrease in OCR is estimated in SKOV3 cells treated with 60 μM MTHFD2i compared with 0 μM MTHFD2i. Oxidative flux data are combined from two independent experiments (n=4), with mean±s.d. estimated using error propagation. […] (n=6) and analysed using two-tailed Welch's t-test. e, Ratio of [2H2]-serine/[2H]-NADH enrichment in SKOV3 and OVCAR8 cells at 2 h after combined tracer introduction of 4-[2H]-glucose and [2H]-formate, representing the normalized contribution of [2H]-NADH to [2H2]-serine via oxidative MTHFD2 flux. Data combined from two independent experiments (n=6), with mean±s.d. estimated using error propagation and analysed by two-tailed Welch's t-test. f, [2H2]-serine enrichment in SKOV3 cells expressing shScramble or shUQCR11 at 2 h after combined tracer introduction of 4-[2H]-glucose and [2H]-formate. […] (n=5) and analysed using one-tailed non-parametric Mann-Whitney test. […]
# SKOV3 and OVCAR8 cells = assay: De novo pyrimidine synthesis flux with [13C4]-aspartate tracer; settings: SKOV3 and OVCAR8, with vs without MTHFD2 inhibitor
# [2] = test system: oxidative MTHFD2 flux in SKOV3 cells; assay: Oxidative MTHFD2 flux by 4-[2H]-glucose tracing; settings: SKOV3 treated with rotenone and MTHFD2 inhibitor 60 μM
# Procedure: as §1
compound,measurement,setting,value
Cc1c(N2CCN(C)[C@@H](C)C2)ccc2c3c(c(=O)oc12)CN(C(=O)c1ccc(NS(C)(=O)=O)c(OC(F)(F)F)c1)CC3 [DS18561882],OCR,"SKOV3 cells; SKOV3, low range of rotenone doses plus MTHFD2 inhibitor 60 μM",synergistic decrease
same,OCR,"SKOV3 cells; SKOV3, rotenone doses >62 nM plus MTHFD2 inhibitor",did not detrimentally affect OCR
same,reductive MTHFD2 flux,[1],greatly reduced
same,de novo pyrimidine synthesis flux,SKOV3 and OVCAR8 cells,similarly reduced
same,oxidative MTHFD2 flux,[2],suppressed

# From patent US20260018245A1, “SYSTEMS AND METHODS FOR IDENTIFYING AND TARGETING COLLATERAL LETHAL GENES” (The Regents of the University of Michigan, priority 2022, published 2026)
